Patent US6558900B2, “Regulation of apoptosis and in vitro model for studies thereof” (Emory University, priority 1996, dated 2003)

Tested on: hamster liver nuclei
Experiment: Reconstitution of DNA fragmentation and nuclear morphological change in HeLa S-100 immunodepleted of cytochrome c
Type: biochemical
Protocol: Cytochrome c present in the HeLa cell S-100 was immunodepleted as described in the Example 10. In FIG. 7A, 10 μl aliquots of HeLa S-100 (50 μg) (lanes 1 and 2), or 10 μl aliquots of HeLa S-100 immunodepleted of cytochrome c (lanes 3 and 4), or 10 μl of HeLa S-100 immunodepleted of cytochrome c supplemented with 0.2 μg Apaf-2 purified through the Mono S column (H) (lanes 5 and 6), bovine heart cytochrome c (B) (lanes 7 and 8), or rat liver cytochrome c (R) (lanes 9 and 10), were incubated with aliquots of 3 μl in vitro translated, ^35S-labeled CPP32 in the absence (lanes 1, 3, 5, 7, 9) or presence (lanes 2, 4, 6, 8, 10) of 1 mM dATP at 30° C. for 1 hr in a final reaction volume of 20 μl of buffer A. Samples were subjected to SDS-PAGE and transferred to a nitrocellulose filter which were then exposed to film for 16 hr at room temperature. In FIG. 7B, HeLa S-100 (50 μg) immunodepleted of cytochrome c were reconstituted with the indicated amount of Apaf-2 (purified through Mono S column step) in a CPP32 cleavage reaction as described in FIG. 7A. The cleaved products (p20) were quantified in a Fuji-1000 phosphorimager machine and plotted in comparison with that generated by HeLa S-100. In FIG. 7C, aliquots of 50 μl of HeLa S-100 (250 μg) (lanes 1 and 2), or 50 μl of HeLa S-100 immunodepleted of cytochrome c (lanes 3 and 4), or 50 μl of HeLa S-100 immunodepleted of cytochrome c supplemented with 1 μg apaf-2 purified through the Mono S column (H) (lanes 5 and 6), bovine heart cytochrome c (B) (lanes 7 and 8), or rat liver cytochrome c (R) (lanes 9 and 10), were incubated with aliquots of 6 μl hamster liver nuclei in the absence (lanes 1, 3, 5, 7, 9) or presence (lanes 2, 4, 6, 8, 10) of 1 mM dATP at 37° C. for 2 hr in a final reaction volume of 60 μl. The DNA were isolated as described in the Examples, analyzed on 2% agarose gel electrophoresis, and the DNA was visualized by ethidium bromide staining. In FIG. 7D, DNA fragmentation assays were carried out as in FIG. 7C using HeLa S-100 immunodepleted of cytochrome c alone (a,b) or supplemented with Apaf-2 purified through Mono S column step (c,d) in the absence (a,c) or presence of 1 mM dATP (b,d). After 2 hr incubation at 37° C., an aliquot of each reaction (30 μl) was stained with 4′,6′-diamidino-2-phenylindole (DAPI), and observed under a fluorescence microscope with a UV-2A combination filter.
To rule out the possibility that the Apaf-2 activity is due to a minor contaminating protein that co-purified with cytochrome c, an immunodepletion experiment was carried out using a monoclonal antibody against rat cytochrome c. This monoclonal antibody cross-reacts with purified Apaf-2. […]

Apaf-2: 15 kDa factor bound to phosphocellulose column, purified from HeLa S-100, identified as human cytochrome c
restoration of DNA fragmentation (1 μg added to immunodepleted HeLa S-100, 1 mM dATP): restored
nuclear morphological change (DAPI) (immunodepleted S-100 supplemented with Apaf-2, 1 mM dATP): accompanied by the morphological change in the co-incubated nuclei that is characteristic of apoptosis
